Consider 12 molecules from PubChem BioAssay (NCI).

Molecules are shown by their SMILES.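 Cultured in 96-well plates, cells were exposed to test compound for 48 hours across five concentrations. GI50 = concentration required for 50% inhibition of growth. The concentration for full growth arrest is given as TGI.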

Among the test systems are HOP-92 NSCLC; SR leukemia; 786-0 renal; U251 CNS; IGROV1 ovarian; SK-MEL-2 melanoma; DU-145 prostate; NCI-H522 lung; MDA-MB-231 breast; HT29 colon.
Common to all, as to experiment: NCI anticancer screen, dose series, 48 h

With `O=c1oc2ccc(-c3ccc(F)cc3F)cc2c(=O)n1-c1ccc(Cl)c(C(F)(F)F)c1`, the GI50 in the assay with HOP-92 NSCLC was 1.58 µM; in the assay on SR leukemia it was 2.43 µM; in the assay on 786-0 renal it was 2.34 µM; in the assay on U251 CNS it was 2.36 µM; in the assay on IGROV1 ovarian, 3.14 µM; in the assay with SK-MEL-2 melanoma, 1.99 µM. For the same molecule, the GI50 in the assay on DU-145 prostate is 3.75 µM; in the assay on NCI-H522 lung, 2.09 µM; in the assay with MDA-MB-231 breast, 2.25 µM; in the assay on HT29 colon, 3.07 µM. Further, the TGI was 5.39 µM in the assay with HOP-92 NSCLC; 8.8 µM in the assay on SR leukemia; 5.68 µM in the assay on 786-0 renal; 12.5 µM in the assay with U251 CNS; > 100 µM with IGROV1 ovarian; 4.76 µM in the assay on SK-MEL-2 melanoma. The TGI in the assay on DU-145 prostate is > 100 µM; with NCI-H522 lung, 8.97 µM; with MDA-MB-231 breast, 6.93 µM; in the assay with HT29 colon it was > 100 µM.

`CCN1C[C@]2(COC)[C@H](O)C[C@H](OC)[C@]34C1[C@H]([C@H](OC)[C@H]23)[C@]1(OC(C)=O)[C@H]2[C@@H](OC(=O)c3ccccc3)[C@](O)(C[C@H]24)[C@@H](OC)[C@@H]1O`: the TGI in the assay on HOP-92 NSCLC, in the assay on SR leukemia, with 786-0 renal, in the assay on U251 CNS, in the assay with IGROV1 ovarian and with SK-MEL-2 melanoma was > 100 µM throughout. The TGI in the assay with DU-145 prostate, in the assay on NCI-H522 lung, in the assay with MDA-MB-231 breast and in the assay with HT29 colon was > 100 µM throughout.

For `COc1ccc(C2C=C(c3ccc(Cl)cc3)N=C3SC=C(C)N32)c(Br)c1` (stereo not drawn), the GI50 was 3.45 µM with HOP-92 NSCLC; 2.06 µM in the assay on SR leukemia; 3.57 µM in the assay with 786-0 renal; 3.34 µM in the assay on U251 CNS; 3.62 µM in the assay on IGROV1 ovarian; 4.79 µM with SK-MEL-2 melanoma. The GI50 in the assay on DU-145 prostate is 2.68 µM; in the assay with NCI-H522 lung, 2.96 µM; in the assay on MDA-MB-231 breast, 4.72 µM; with HT29 colon, 3.62 µM. Moreover, the TGI in the assay on HOP-92 NSCLC came out at 22 µM; with SR leukemia it was 14.9 µM; with 786-0 renal, 25.4 µM; in the assay on U251 CNS, 13.1 µM; in the assay on IGROV1 ovarian, 20.4 µM; in the assay on SK-MEL-2 melanoma, 18.1 µM. Besides, the TGI in the assay with DU-145 prostate came to 7.26 µM; in the assay with NCI-H522 lung, 9.29 µM; in the assay with MDA-MB-231 breast, 22.1 µM; with HT29 colon it was 12.7 µM.

`Clc1ccccc1C(Nc1ncccn1)Nc1ncccn1`: the TGI with HOP-92 NSCLC, with SR leukemia, with 786-0 renal, in the assay on U251 CNS, in the assay with IGROV1 ovarian and with SK-MEL-2 melanoma was > 100 µM throughout. The TGI in the assay with DU-145 prostate, with NCI-H522 lung, in the assay with MDA-MB-231 breast and in the assay on HT29 colon was > 100 µM in each case.

`O=C(Nc1ccccc1O)c1ccc(NS(=O)(=O)c2cccc3cccnc23)cc1`: the GI50 is 0.691 µM in the assay with HOP-92 NSCLC; 1.31 µM in the assay on SR leukemia; 2.4 µM in the assay with 786-0 renal; 1.3 µM in the assay with U251 CNS; 3.06 µM in the assay with IGROV1 ovarian; 0.806 µM with SK-MEL-2 melanoma. Further, the GI50 with DU-145 prostate was 1.27 µM; with NCI-H522 lung, 0.67 µM; in the assay on MDA-MB-231 breast, 2.17 µM; in the assay with HT29 colon, 1.18 µM. Also, the TGI in the assay with HOP-92 NSCLC is 3.22 µM; in the assay with SR leukemia it was 13.9 µM; with 786-0 renal, 6.4 µM; in the assay with U251 CNS, 5.4 µM; with IGROV1 ovarian, 9.95 µM; in the assay on SK-MEL-2 melanoma, 4.35 µM. For the same molecule, the TGI was 9.55 µM in the assay on DU-145 prostate, 3.47 µM in the assay with NCI-H522 lung, 7.72 µM in the assay on MDA-MB-231 breast and > 16 µM in the assay with HT29 colon.

On to `CN(C)c1ccc(/C=c2/c3ccccc3n3c2c2cc(F)ccc2[n+]3C)cc1`, for which the GI50 with HOP-92 NSCLC was 6.36 µM; in the assay on SR leukemia, 0.0501 µM; with 786-0 renal, 4.24 µM; in the assay with U251 CNS, 0.905 µM; in the assay with IGROV1 ovarian, 5.98 µM; with SK-MEL-2 melanoma, 3.54 µM. Moreover, the GI50 with DU-145 prostate was 5.07 µM; in the assay with NCI-H522 lung, 4.57 µM; in the assay on MDA-MB-231 breast it was 13.4 µM; with HT29 colon, 3.49 µM. The TGI in the assay with HOP-92 NSCLC was 25.3 µM; in the assay with SR leukemia it was 1.23 µM; in the assay on 786-0 renal, 21 µM; in the assay on IGROV1 ovarian, > 36.7 µM; with SK-MEL-2 melanoma it was 11.1 µM; in the assay on DU-145 prostate it was 18.4 µM. The TGI with NCI-H522 lung is > 41.1 µM; in the assay on MDA-MB-231 breast it was 34.5 µM; in the assay on HT29 colon it was 40.8 µM.

As for `NC(=S)N=Nc1c(O)c2ccccc2c2ccccc12`, the GI50 in the assay with HOP-92 NSCLC is 18.4 µM; in the assay on SR leukemia it was 9.64 µM; with 786-0 renal it was 31.7 µM; in the assay on U251 CNS, 3.07 µM; with IGROV1 ovarian, 27.2 µM; with SK-MEL-2 melanoma it was 14.9 µM. For the same molecule, the GI50 with DU-145 prostate is 1.9 µM; in the assay on NCI-H522 lung, 3.22 µM; in the assay with MDA-MB-231 breast, 16.1 µM; in the assay with HT29 colon, 19.3 µM. Also, the TGI is 51.6 µM in the assay with HOP-92 NSCLC; 35.8 µM with SR leukemia; 88.2 µM with 786-0 renal; 11.4 µM in the assay with U251 CNS; > 100 µM in the assay with IGROV1 ovarian; 33.8 µM in the assay on SK-MEL-2 melanoma. Besides, the TGI is 3.36 µM in the assay on DU-145 prostate, 9.66 µM with NCI-H522 lung, 60.2 µM in the assay on MDA-MB-231 breast and > 100 µM with HT29 colon.

As to `NNC(=O)c1ccc(OCc2nc3ccccc3[nH]2)cc1`, the TGI in the assay on HOP-92 NSCLC, in the assay with SR leukemia, with 786-0 renal, in the assay on U251 CNS, in the assay on IGROV1 ovarian and in the assay with SK-MEL-2 melanoma was > 100 µM each time. The TGI in the assay with DU-145 prostate, with NCI-H522 lung, in the assay with MDA-MB-231 breast and in the assay with HT29 colon was > 100 µM each time.

With `COc1ccc(/C=C\c2cc(OC)c(OC)c(OC)c2)cc1OCC(=O)Nc1ccc2nc(C)sc2c1`, the GI50 with HOP-92 NSCLC is 2.38 µM; in the assay with SR leukemia it was 2.93 µM; in the assay on 786-0 renal, 7.55 µM; in the assay on U251 CNS, 3.59 µM; in the assay on IGROV1 ovarian, 3.72 µM; with SK-MEL-2 melanoma it was 3.15 µM. For the same molecule, the GI50 in the assay on DU-145 prostate was 3.81 µM; in the assay on NCI-H522 lung, 2.28 µM; in the assay on MDA-MB-231 breast, 5.45 µM; with HT29 colon, 3.31 µM. Further, the TGI is 7.62 µM in the assay with HOP-92 NSCLC; > 100 µM with SR leukemia; > 100 µM in the assay on 786-0 renal; > 100 µM in the assay on U251 CNS; 15.7 µM with IGROV1 ovarian; 19.1 µM in the assay with SK-MEL-2 melanoma. The TGI with DU-145 prostate was 29.7 µM; with NCI-H522 lung it was 7.06 µM; in the assay with MDA-MB-231 breast, > 100 µM; in the assay on HT29 colon, > 100 µM.

In the case of `CCS(=O)(=O)c1ccc(OC)c(Nc2ncc(-c3ccccc3Cl)o2)c1`, the GI50 was 3.29 µM with HOP-92 NSCLC; 15.5 µM in the assay with SR leukemia; > 17.4 µM with 786-0 renal; 18.1 µM with U251 CNS; 14.4 µM in the assay with IGROV1 ovarian; 9.06 µM in the assay with SK-MEL-2 melanoma. Moreover, the GI50 was 10.1 µM in the assay on DU-145 prostate, 8.95 µM in the assay with NCI-H522 lung, 11.4 µM in the assay on MDA-MB-231 breast and 8.01 µM with HT29 colon. The TGI in the assay with HOP-92 NSCLC is 21.1 µM; in the assay on SR leukemia, > 25 µM; in the assay with 786-0 renal, > 25 µM; with U251 CNS, > 25 µM; with IGROV1 ovarian it was > 25 µM; with SK-MEL-2 melanoma, > 21.6 µM. Besides, the TGI in the assay with DU-145 prostate is > 25 µM; in the assay with NCI-H522 lung, > 25 µM; in the assay on MDA-MB-231 breast, > 25 µM; in the assay on HT29 colon it was > 20.5 µM.

For the molecule `COc1cc(/C=C/c2cc(/C=C/c3ccc(O)c(OC)c3)n(C(=O)Nc3ccc(Cl)cc3)n2)ccc1O`, the GI50 with HOP-92 NSCLC is 2.14 µM; in the assay on SR leukemia it was 0.106 µM; in the assay with 786-0 renal, 0.515 µM; in the assay with U251 CNS, 0.525 µM; in the assay with IGROV1 ovarian, 0.661 µM; in the assay on SK-MEL-2 melanoma, 0.403 µM. For the same molecule, the GI50 in the assay with DU-145 prostate is 0.382 µM; in the assay with NCI-H522 lung it was 0.215 µM; with MDA-MB-231 breast, 0.975 µM; in the assay on HT29 colon it was 2.58 µM. For the same molecule, the TGI with HOP-92 NSCLC is 7.04 µM; with 786-0 renal, 1.85 µM; in the assay on U251 CNS, 5.33 µM; in the assay on IGROV1 ovarian it was 4.66 µM; in the assay with SK-MEL-2 melanoma, 2.01 µM; with DU-145 prostate, 1.67 µM. In addition, the TGI in the assay with NCI-H522 lung was 0.802 µM; with MDA-MB-231 breast it was 10.7 µM; with HT29 colon it was 6.26 µM.

`Cc1ccc(-c2nc(-c3cn(C)c4ncccc34)cs2)cc1`: the GI50 in the assay on HOP-92 NSCLC was 4.73 µM; in the assay with SR leukemia, 0.442 µM; in the assay on 786-0 renal it was 6.09 µM; in the assay on U251 CNS, 4.4 µM; with IGROV1 ovarian, 7.26 µM; in the assay on SK-MEL-2 melanoma it was 6.77 µM. The GI50 with DU-145 prostate is 7.42 µM; in the assay on NCI-H522 lung it was 2.14 µM; with MDA-MB-231 breast, 4.88 µM; with HT29 colon it was 2.32 µM. The TGI in the assay on HOP-92 NSCLC is 23.8 µM; in the assay with SR leukemia, 21.8 µM; in the assay with 786-0 renal it was 19.8 µM; in the assay on U251 CNS, 17 µM; with IGROV1 ovarian it was 32.2 µM; with SK-MEL-2 melanoma it was 34 µM. Moreover, the TGI in the assay on DU-145 prostate came to 21.3 µM; with NCI-H522 lung it was 16.7 µM; in the assay with MDA-MB-231 breast, 21.5 µM; in the assay with HT29 colon, 8.51 µM.
